Earlier results in patent US10130658B2, “Method of ex vivo enhancement of immune cell activity for cancer immunotherapy with a small molecule ablative compound” (Provectus Pharmatech, Inc., priority 2015, dated 2018).

Tests used:
Hela cells = details: treated for 1 hour following photodynamic irradiation

CC(=O)Oc1c(I)cc2c(c1I)Oc1c(cc(I)c(OC(C)=O)c1I)C21OC(=O)c2c(Cl)c(Cl)c(Cl)c(Cl)c21 [rose bengal acetate]
HMGB1 release (Hela cells): passively released

O=C1OC2(c3cc(I)c(O)c(I)c3Oc3c2cc(I)c(O)c3I)c2c(Cl)c(Cl)c(Cl)c(Cl)c21 [RB, 4,5,6,7-tetrachloro-2′,4′,5′,7′-tetraiodofluorescein]
time to autolyse tumor cells (tumor cells; accumulates in lysosomes of tumor cells): 30 to 60 min
uptake into normal cells (tumor cells; normal cells): excluded
